Reference: patent publication US20190209472A1, “FORMULATIONS FOR DERMAL DELIVERY OF POLYMER CONJUGATES OF INDOLOCARBAZOLE COMPOUNDS WITH REDUCED EXPOSURE” (Sienna Biopharmaceuticals, Inc., priority 2017, published 2019)

Legend:
[1] = Phase 1b maximal use study: plasma pharmacokinetics of SNA-120; assay type: in vivo, human; settings: any post-baseline timepoint; no detectable levels
Description: This is a multicenter, open-label, Phase 1b study designed to evaluate the PK with maximal use of 0.5% w/w SNA-120 ointment (see Table 1), as measured by circulating plasma levels of SNA-120 in men and women aged ≥18 years who have at least moderate (e.g., moderate to severe) pruritus associated with at least moderate (e.g., moderate to severe) psoriasis vulgaris (PV) covering at least 20% body surface area (BSA). SNA-120 was evaluated as a topical, non-steroidal ointment to treat itch (pruritus) associated with psoriasis. SNA-120 was designed to achieve high local drug concentration in the target tissue while minimizing systemic exposure for patients. SNA-120 directly targets the peripheral itch pathway in the psoriatic plaque.
Approximately 30 eligible subjects will receive 0.5% w/w SNA-120 ointment (2 mg/cm^2) proportional to approximately 35 mg active drug at each application for a subject with at least 20% BSA affected, administered twice daily over 4 weeks to the indicated areas in the Treatment Area. […]
Pharmacokinetics—Blood: Serial blood draws for PK analysis will be obtained approximately the same time of day for Study Days 1 and 29. […] On Days 1 and 29, blood draws will be collected after each nominal ECG extraction time point; the actual times of collection will be recorded in the eCRF. […]

[2] = Validation of HPLC methods (SNA-120 assay and related substances, benzyl alcohol); settings: benzyl alcohol in ointment sample solutions stored at ambient conditions
Source text: An HPLC method was developed for the detection of assay and related substances of SNA-120 drug product and placebo. The following method validation parameters were challenged: specificity; linearity; accuracy; precision (system and repeatability); range; stability of test solutions; limit of detection and quantitation; system suitability.
An HPLC method was developed for the detection of Benzyl Alcohol in SNA-120 drug product and placebo. The following method validation parameters were challenged: specificity; linearity; accuracy; precision (system and repeatability); range; stability of test solutions; system suitability.

| SMILES | Plasma levels of K252b [1] [ng/mL] | Stability of test solutions: samples stable for up to [2] |
| --- | --- | --- |
| C[C@]12O[C@H](C[C@]1(O)C(=O)O)n1c3ccccc3c3c4c(c5c6ccccc6n2c5c31)CNC4=O [Lot K252b] | < 0.250 | – |
| OCc1ccccc1 [benzyl alcohol] | – | ambient conditions. Samples are stable for up to 2 days |
